Test results published in US20170224758A1, “COMPOSITIONS AND METHODS OF TREATING MUSCULAR DYSTROPHY” (THE BROAD INSTITUTE, INC., priority 2014, published 2017).

Molecular target: T1, Myogenin (Mus musculus, UniProt P12979)
T1 construct: electrophoretic mobility shift assays (EMSA) were carried out using muscle cell nuclear extracts; host or cells: C2C12 nuclear extract
T1 sequence (P12979 1-224): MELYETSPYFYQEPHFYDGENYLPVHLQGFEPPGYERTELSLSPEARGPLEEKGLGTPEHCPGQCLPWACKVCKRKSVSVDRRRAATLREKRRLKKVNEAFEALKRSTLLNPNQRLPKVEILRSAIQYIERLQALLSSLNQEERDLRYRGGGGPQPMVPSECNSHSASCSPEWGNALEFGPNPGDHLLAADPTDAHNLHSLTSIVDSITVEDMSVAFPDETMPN
Assay: Electrophoretic mobility shift assay (EMSA) with muscle cell nuclear extracts
Type: binding
Details: biotin labeled probe, C2C12 nuclear extract

Sequence	binding of Myogenin protein (EMSA)
CTCCTTTATTTCAGCGGAACTAAAGAAGTCTC (DNA, backbone and methylation of C not given here; duplex with complementary strand, biotin-labeled probe or unlabeled competitor) [G probe]	did not bind at all
CTCCTTTATTTCAGCTGAACTAAAGAAGTCTC (DNA, backbone and methylation of C not given here; duplex with complementary strand, biotin-labeled probe or unlabeled competitor) [T probe, biotin labeled duplex EMSA probe with the escaper variant of the Jagged1 promoter]	robustly bound
